Results reported in article PMC9529985, “Eco-friendly methods of synthesis and preliminary biological evaluation of sulfonamide derivatives of cyclic arylguanidines” (Ultrasonics Sonochemistry, 2022).
Read-outs that look alike come from different tables or passages of the source.

How the values were obtained:
[1] = Metabolic stability in mouse liver microsomes (MLMs); format: in vitro ADME; settings: TRIS-HCl pH 7.4 buffer solution without microsomes, 120 min
[2] = as above; format: in vitro ADME; settings: for Metabolic pathway: metabolites identified by UPLC-MS; for remaining at 2 h, 50 µM: mouse, liver microsomes, MLMs 1 mg/ml
Procedure: The ADME-Tox parameters of 10f were analyzed according to described previously protocols, [45] and included: Parallel Artificial Membrane Permeability Assay (PAMPA) passive permeability testing, the influence on CYP3A4 activity, metabolic stability in mouse liver microsomes, and hepatotoxicity assessment with HepG2 cells.
The metabolic stability of 10f was estimated with mouse liver microsomes (MLMs) (Sigma-Aldrich, St. Louis, MO, USA). The tested compound (50 µM) was incubated in the presence of MLMs (1 mg/ml) for 120 min in a buffer (10 mM Tris–HCl buffer at 37 °C). Then, to terminate the reaction, cold methanol was added to the reaction mixture. The precipitated MLMs were centrifuged and the supernatant was analyzed with a LC/MS Waters ACQUITY™ TQD system with the TQ Detector (Waters, Milford, USA).

[3] = tested on: HepG2 human hepatoma cell line; test: Hepatotoxicity, MTS assay in HepG2 cells; format: cell-based; settings: 72 h (Fig. 6 legend)
Procedure: Hepatotoxicity was evaluated by means of an MTS assay described above (section 23) with a HepG2 human hepatoma cell line (ATCC:HB-8065), [48]. […] Compound 10f was tested in a single experiment in quadruplicate.

[4] = PAMPA passive permeability; format: in vitro ADME; settings: PBS pH 7.4, 5 h, room temperature
Procedure: The ADME-Tox parameters of 10f were analyzed according to described previously protocols, [45] and included: Parallel Artificial Membrane Permeability Assay (PAMPA) passive permeability testing, the influence on CYP3A4 activity, metabolic stability in mouse liver microsomes, and hepatotoxicity assessment with HepG2 cells. The pre-coated PAMPA Plate System Gentest was sourced from Corning (Tewksbury, MA, USA). […] The plate was incubated at room temperature for 5 h without stirring. Then, 50 μL was aspirated from both Acceptor (A) and Donor (D) wells and then diluted with a 50 µL solution of an internal standard (IS). The concentrations of the tested compounds in the A and D wells were estimated with an LC/MS Waters ACQUITY™ TQD system with the TQ Detector (Waters, Milford, USA). The Pe values were estimated according to the proper formulas provided by Corning and described previously in the literature.

[5] = tested on: human astrocytoma cell line 1321 N1; test: MTS cytotoxicity test in 1321 N1 astrocytoma cells; format: cell-based; settings: 1321 N1 cells; for concentration at which activity (statistically significant suppression of cell viability) was seen / IC50: MTS; for viability of the cells compared to vehicle control: 24 h exposure; for IC50: 50 % decrease relative to the maximum inhibition observed, read-out: IC50 (cell viability)
Procedure: (§1) The cytotoxic properties of newly synthetized compounds were assessed in human astrocytoma cell line 1321 N1 (RRID:CVCL_0110, European Collection of Authenticated Cell Cultures, ECACC:86030402) and human breast adenocarcinoma cell line MDA-MB-231 (RRID:CVCL_0062; ATCC:HTB-26). ECACC and ATCC perform thorough cell line authentication utilizing Short Tandem Repeat (STR) profiling. Upon receipt of the cell lines, the cells were expanded for a few passages to enable the generation of new frozen stocks. The cells were resuscitated as needed and used for<6 months after resuscitation (no>15 passages). Cell line 1321 N1 was cultured in high-glucose (4500 mg/L) Dulbecco's modified Eagle's medium (DMEM) supplemented with 10 % fetal bovine serum (FBS). The MDA-MB-231 cells were maintained in RPMI-1640 with 10 % FBS. All cell culture media were additionally fortified with penicillin (100 U/mL), streptomycin (100 µg/mL), and amphotericin B (250 ng/mL) to prevent bacterial and yeast contamination. The cell culture media and supplements used in this study were purchased from Sigma-Aldrich. The cells were maintained at 37 °C in a humidified 5 % incubator in an atmosphere of 5 % CO2 and 95 % air.
The cells were subcultured upon reaching the confluency of about 80 %. Cell detachment was facilitated with TrypLE solution (Thermo Fisher Scientific). The cells were counted in a Z2 particle counter (Beckman Coulter), then plated at 5,000 cells/well in 96-well plates (Eppendorf) in 100 µL of full growth medium and cultured overnight to enable cell attachment. Next day, the cells were subjected to either vehicle (0.1 % DMSO) or our compounds of interest for 24, 48, or 72 h. The assessment of cell viability was performed by adding 20 µL/well of the mixture of 3-(4,5-dimethylthiazol-2-yl)-5-(3-carboxymethoxyphenyl)-2-(4-sulfophenyl)–2H-tetrazolium, inner salt (MTS) and phenazine ethosulfate from Promega (#G3580). After 3 h of incubation, the absorbance was recorded at 490 nm using Synergy H1 plate reader (Biotek) The experiments were carried out in quadruplicates and were repeated three times. The obtained values were normalized to vehicle control and plotted.
The IC50 values were calculated with GraphPad Prism 8.0.1 software (nonlinear regression, log(inhibitor) vs normalized response) as the dose that causes a 50 % decrease in cell viability relative to the maximum inhibition observed. Statistical significance determination was evaluated with GraphPad Prism 5.0.1 software using one-way ANOVA, followed by Bonferroni’s comparison test (p < 0.05).

[6] = tested on: human breast adenocarcinoma cell line MDA-MB-231; test: MTS cytotoxicity test in MDA-MB-231 cells; format: cell-based; settings: 24 h, read-out: IC50 (cell viability)
Procedure: as §1, with “All cell culture media were additionally fortified with penicillin (100 U/mL), streptomycin (100 µg/mL), and amphotericin B (250 ng/mL) to prevent bacterial and yeast contamination. The cell culture media and supplements used in this study were purchased from Sigma-Aldrich. The cells were maintained at 37 °C in a humidified 5 % incubator in an atmosphere of 5 % CO2 and 95 % air.” left out
The cells were subcultured upon reaching the confluency of about 80 %. […] The cells were counted in a Z2 particle counter (Beckman Coulter), then plated at 5,000 cells/well in 96-well plates (Eppendorf) in 100 µL of full growth medium and cultured overnight to enable cell attachment. […] After 3 h of incubation, the absorbance was recorded at 490 nm using Synergy H1 plate reader (Biotek) The experiments were carried out in quadruplicates and were repeated three times. […]

SMILES: O=S(=O)(Nc1nc2ccccc2[nH]1)c1ccccc1 [10a, N-(1H-benzimidazol-2-yl)benzenesulfonamide]
- melting point: > 300 °C

SMILES: O=S(=O)(NC1=NCc2ccccc2N1)c1cccc2ccccc12 [10f, N-(1,4-dihydroquinazolin-2-yl)naphthalene-1-sulfonamide]
- dehydrogenation in control sample [1]: 5%
- metabolic stability (in words) ([2]; MLMs, 120 min): unstable
- metabolized ([2]; MLMs, 120 min incubation, UPLC): 97%
- Metabolic pathway ([2]; MLMs): double hydroxylation and double bound reduction
- remaining at 2 h, 50 µM ([2]; 120 min): 3%
- hepatotoxicity (in words) ([3]; HepG2, 1–10 µM): did not exhibit hepatotoxic properties
- effect on cell viability (in words) ([3]; HepG2, 50 or 100 µM): statistically significant decrease in cells viability
- Papp at 5 h, 200 µM ([4]; read-out: permeability coefficient Pe): 5 ± 1.5 ×10⁻⁶ cm/s
- concentration at which activity (statistically significant suppression of cell viability) was seen ([5]; 24 h): 1 µM
- viability of the cells compared to vehicle control [5]: 48.0%
- IC50 ([5]; Homo sapiens, 24 h): 8220 nM
- viability at 50 µM ([5]; Homo sapiens, 72 h, 50 µM, read-out: cells still viable): 32%
- IC50 ([5]; Homo sapiens, 72 h): 130 nM

SMILES: O=S(=O)(NC1=NCc2ccccc2N1)c1ccccc1 [10e, N-(1,4-dihydroquinazolin-2-yl)benzenesulfonamide]
- melting point: 182 to 186 °C

SMILES: O=S(=O)(NC1=NCc2cc(Cl)ccc2N1)c1ccc2ccccc2c1 [10h, N-(6-chloro-1,4-dihydroquinazolin-2-yl)naphthalene-2-sulfonamide]
- melting point: 207 to 209 °C

SMILES: O=S(=O)(NC1=NCc2ccccc2N1)c1ccc2ccccc2c1 [10g, N-(1,4-dihydroquinazolin-2-yl)naphthalene-2-sulfonamide]
- melting point: > 300 °C

SMILES: Nc1nc2cc(Cl)ccc2n1S(=O)(=O)c1cccc2ccccc12 [11d, 5-chloro-1-(naphthalene-1-sulfonyl)-1H-benzimidazol-2-amine]
- melting point: 225 to 229 °C
- concentration at which activity (statistically significant suppression of cell viability) was seen ([5]; 24 h): 1 µM

SMILES: O=S(=O)(Nc1ncc2ccccc2n1)c1cccc2ccccc12 [Dehydrogenated-10f, N-(quinazolin-2-yl)naphthalene-1-sulfonamide]
- Metabolic pathway ([2]; MLMs): double hydroxylation
- remaining at 2 h, 50 µM ([2]; 120 min): 17.5%

SMILES: Cn1c(=O)c2c(ncn2C)n(C)c1=O [caffeine, reference compound]
- permeability coefficient Pe ([4]; 200 µM): 12.2 ± 0.9 × 10^-6 cm/s

SMILES: Nc1nc2ccccc2n1S(=O)(=O)c1ccc2ccccc2c1 [11c, 1-(naphthalene-2-sulfonyl)-1H-benzimidazol-2-amine]
- melting point: 188 to 194 °C

SMILES: COc1cccc2c1C(=O)c1c(O)c3c(c(O)c1C2=O)C[C@@](O)(C(=O)CO)C[C@@H]3O[C@H]1C[C@H](N)[C@H](O)[C@H](C)O1 [doxorubicin, reference compound]
- IC50 [6]: 1400 nM
- viability of the cells compared to vehicle control [5]: 47.5%
- IC50 ([5]; Homo sapiens, 24 h): 1100 nM
